# Test results as given in patent publication US20250304620A1, “ANTIMICROBIAL PEPTIDE AND APPLICATION THEREOF” (priority 2023, published 2025).
# Marks after values point to notes of the source that are not given here. Non-standard residues stand in square brackets, D forms with d. Residues, ends and D or L forms follow the SMILES beside them. dPhe(3,4-F2) = N[C@H](Cc1ccc(F)c(F)c1)C(=O)O; dPhe(4-Cl) = N[C@H](Cc1ccc(Cl)cc1)C(=O)O
# Legend:
# [1] = system: Shigella flexneri ATCC 12022; test: MIC against clinically common bacterial strain; type: cell-based
# In short: (§1)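 Broth microdilution (CLSI), twofold steps, MIC endpoint, 5× in parallel.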
# [2] = system: Candida krusei ATCC 6258; type: cell-based
# In short: as §1
# [3] = system: Corynebacterium ATCC 7715; type: cell-based
# In short: as §1
# [4] = system: Candida albicans ATCC MYA-2876; type: cell-based
# In short: as §1
# [5] = system: Serratia marcescens ATCC 29021; type: cell-based
# In short: as §1
# [6] = system: Candida tropicalis ATCC 750; type: cell-based
# In short: as §1
# [7] = system: Enterococcus ATCC 29212; type: cell-based
# In short: as §1
# [8] = system: Pseudomonas aeruginosa ATCC 27853; type: cell-based
# In short: as §1
# [9] = system: Trichophyton ATCC MYA-4438; type: cell-based
# In short: as §1
# [10] = system: Escherichia coli ATCC 25922; type: cell-based
# In short: as §1
# [11] = system: Klebsiella pneumoniae ATCC 700603; type: cell-based
# In short: as §1
# [12] = system: Methicillin-resistant Staphylococcus aureus (MRSA); type: cell-based; settings: Methicillin-resistant
# In short: (§2)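 MICs of antimicrobial peptides determined by CLSI serial twofold microdilution against clinical drug-resistant isolates. Five parallel repeats.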
# [13] = system: carbapenem-resistant Klebsiella pneumoniae (CRKP); type: cell-based; settings: carbapenem-resistant (CRKP)
# In short: as §2
# [14] = system: carbapenem-resistant Pseudomonas aeruginosa (CRPA); type: cell-based; settings: carbapenem-resistant (CRPA)
# In short: as §2
# [15] = system: vancomycin-resistant Enterococcus (VRE); type: cell-based
# In short: as §2
# [16] = system: carbapenem-resistant Escherichia coli (CREC); type: cell-based; settings: carbapenem-resistant (CREC)
# In short: as §2
# [17] = system: Escherichia coli ATCC 25922; test: Oral formulations on mice with systemic bacterial infection; type: in vivo, ICR mice; settings: three times a day for 7 days; for Number of mice that died on each day after infection: day 4 / Number of mice that died on each day after infection: day 5 / Number of mice that died on each day after infection: day 6 / Number of mice that died on each day after infection: day 7 / Number of mice that died on each day after infection: day 8 / Average survival times (Days): n = 10; for Average survival times (Days): observed for 14 d
# In short: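 ICR mice of both sexes, 10 per group, infected i.p. with 0.2 mL E. coli ATCC 25922 at 1×10^7 CFU/mL. Compounds gavaged by body weight immediately after infection, three times daily for 7 days; deaths and survival time recorded over 14 d observation.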
# [18] = system: Staphylococcus aureus (NRS 384); settings: NRS 384, 3 h
# Procedure: Trypsin (250 U/mg, pH=8.0) and AMPs (LV-1 to LV-30) were mixed in a ratio of 1:10 (w/w) and added to a reaction buffer (0.2 M sodium phosphate, 1 mM CaCl2), pH 7.5), and then incubated at 37° C. for 3 h.
# [19] = system: Pseudomonas aeruginosa ATCC 27853; test: Injectable formulations on mice infected with peritonitis; type: in vivo, ICR mice; settings: twice a day for 3 days; for Number of mice that died on each day after infection: day 1 / Number of mice that died on each day after infection: day 2 / Number of mice that died on each day after infection: day 3 / Number of mice that died on each day after infection: day 4 / Number of mice that died on each day after infection: day 5 / Average survival times (Days): n = 10; for Average survival times (Days): observed for 14 d
# In short: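 ICR mice of both sexes (10 per group) infected intraperitoneally with 0.2 mL P. aeruginosa ATCC 27853 at 1×10^9 CFU/mL. Injectable formulations dosed by body weight via tail vein twice daily for 3 days; deaths and survival time recorded over 14 d.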
structure (smiles),measurement,setting,value
"CC(=O)N[C@H](CCCNC(=N)N)C(=O)N[C@H](CCCCN)C(=O)N[C@H](CC(C)C)C(=O)N[C@H](CC(C)C)C(=O)N[C@H](Cc1ccc(F)c(F)c1)C(=O)N[C@H](CCCCN)C(=O)N[C@H](CC(C)C)C(=O)N[C@H](CCCCN)C(=O)N[C@H](Cc1ccc(F)c(F)c1)C(=O)N[C@H](CCCCN)C(=O)N[C@H](CCCNC(=N)N)C(N)=O [LV-6] (Ac-[dR][dK][dL][dL][dPhe(3,4-F2)][dK][dL][dK][dPhe(3,4-F2)][dK][dR]-NH2)",MIC Shigella flexneri ATCC 12022,[1],4 µg/mL
same,MIC Candida krusei ATCC 6258,[2],4 µg/mL
same,MIC Corynebacterium ATCC 7715,[3],2 µg/mL
same,MIC Candida albicans ATCC MYA-2876,[4],16 µg/mL
same,MIC Serratia marcescens ATCC 29021,[5],8 µg/mL
same,MIC Candida tropicalis ATCC 750,[6],4 µg/mL
same,MIC Enterococcus ATCC 29212,[7],2 µg/mL
same,MIC Pseudomonas aeruginosa ATCC 27853,[8],1 µg/mL
same,MIC Trichophyton ATCC MYA-4438,[9],8 µg/mL
same,MIC Escherichia coli ATCC 25922,[10],1 µg/mL
same,MIC Klebsiella pneumoniae ATCC 700603,[11],4 µg/mL
same,MIC MRSA,[12],4 µg/mL
same,MIC CRKP,[13],8 µg/mL
same,MIC CRPA,[14],8 µg/mL
same,MIC VRE,[15],2 µg/mL
same,MIC CREC,[16],2 µg/mL
same,Number of mice that died on each day after infection: day 4,[17]; 0.2 mg/kg gavage,1 Mouse
same,Number of mice that died on each day after infection: day 5,[17]; 0.2 mg/kg gavage,3 Mouse
same,Number of mice that died on each day after infection: day 6,[17]; 0.2 mg/kg gavage,2 Mouse
same,Number of mice that died on each day after infection: day 7,[17]; 0.2 mg/kg gavage,0 Mouse
same,Number of mice that died on each day after infection: day 8,[17]; 0.2 mg/kg gavage,0 Mouse
same,Average survival times (Days),[17]; 0.2 mg/kg gavage,8.7** Days
same,Number of mice that died on each day after infection: day 4,[17]; 1 mg/kg gavage,1 Mouse
same,Number of mice that died on each day after infection: day 5,[17]; 1 mg/kg gavage,0 Mouse
same,Number of mice that died on each day after infection: day 6,[17]; 1 mg/kg gavage,1 Mouse
same,Number of mice that died on each day after infection: day 7,[17]; 1 mg/kg gavage,1 Mouse
same,Number of mice that died on each day after infection: day 8,[17]; 1 mg/kg gavage,1 Mouse
same,Average survival times (Days),[17]; 1 mg/kg gavage,10.9*** Days
same,Number of mice that died on each day after infection: day 4,[17]; 5 mg/kg gavage,2 Mouse
same,Number of mice that died on each day after infection: day 5,[17]; 5 mg/kg gavage,1 Mouse
same,Number of mice that died on each day after infection: day 6,[17]; 5 mg/kg gavage,1 Mouse
same,Number of mice that died on each day after infection: day 7,[17]; 5 mg/kg gavage,0 Mouse
same,Number of mice that died on each day after infection: day 8,[17]; 5 mg/kg gavage,0 Mouse
same,Average survival times (Days),[17]; 5 mg/kg gavage,10.3*** Days
same,survival time of mice infected with Escherichia coli,"[17]; gavage, observed 14 d",superior to those of the Levofloxacin group
same,Trypsin MIC,[18],1 µg/mL
same,Number of mice that died on each day after infection: day 1,[19]; 0.2 mg/kg via tail vein,2 Mouse
same,Number of mice that died on each day after infection: day 2,[19]; 0.2 mg/kg via tail vein,2 Mouse
same,Number of mice that died on each day after infection: day 3,[19]; 0.2 mg/kg via tail vein,1 Mouse
same,Number of mice that died on each day after infection: day 4,[19]; 0.2 mg/kg via tail vein,0 Mouse
same,Number of mice that died on each day after infection: day 5,[19]; 0.2 mg/kg via tail vein,0 Mouse
same,Average survival times (Days),[19]; 0.2 mg/kg via tail vein,7.9** Days
same,Number of mice that died on each day after infection: day 1,[19]; 1 mg/kg via tail vein,1 Mouse
same,Number of mice that died on each day after infection: day 2,[19]; 1 mg/kg via tail vein,1 Mouse
same,Number of mice that died on each day after infection: day 3,[19]; 1 mg/kg via tail vein,0 Mouse
same,Number of mice that died on each day after infection: day 4,[19]; 1 mg/kg via tail vein,1 Mouse
same,Number of mice that died on each day after infection: day 5,[19]; 1 mg/kg via tail vein,0 Mouse
same,Average survival times (Days),[19]; 1 mg/kg via tail vein,10.5**** Days
same,Number of mice that died on each day after infection: day 1,[19]; 5 mg/kg via tail vein,1 Mouse
same,Number of mice that died on each day after infection: day 2,[19]; 5 mg/kg via tail vein,2 Mouse
same,Number of mice that died on each day after infection: day 3,[19]; 5 mg/kg via tail vein,1 Mouse
same,Number of mice that died on each day after infection: day 4,[19]; 5 mg/kg via tail vein,0 Mouse
same,Number of mice that died on each day after infection: day 5,[19]; 5 mg/kg via tail vein,0 Mouse
same,Average survival times (Days),[19]; 5 mg/kg via tail vein,9.2*** Days
same,survival time of mice infected with Pseudomonas aeruginosa,"[19]; tail vein, observed 14 d",superior to those of the Levofloxacin group
CC(=O)N[C@H](CCCNC(=N)N)C(=O)N[C@H](CCCCN)C(=O)N[C@H](CC(C)C)C(=O)N[C@H](CC(C)C)C(=O)N[C@H](Cc1ccc(Cl)cc1)C(=O)N[C@H](CCCCN)C(=O)N[C@H](CC(C)C)C(=O)N[C@H](CCCCN)C(=O)N[C@H](Cc1ccc(Cl)cc1)C(=O)N[C@H](CCCCN)C(=O)N[C@H](CCCNC(=N)N)C(N)=O [LV-7] (Ac-[dR][dK][dL][dL][dPhe(4-Cl)][dK][dL][dK][dPhe(4-Cl)][dK][dR]-NH2),MIC Shigella flexneri ATCC 12022,[1],4 µg/mL
same,MIC Candida krusei ATCC 6258,[2],8 µg/mL
same,MIC Corynebacterium ATCC 7715,[3],4 µg/mL
same,MIC Candida albicans ATCC MYA-2876,[4],8 µg/mL
same,MIC Serratia marcescens ATCC 29021,[5],8 µg/mL
same,MIC Candida tropicalis ATCC 750,[6],8 µg/mL
same,MIC Enterococcus ATCC 29212,[7],8 µg/mL
same,MIC Pseudomonas aeruginosa ATCC 27853,[8],2 µg/mL
same,MIC Trichophyton ATCC MYA-4438,[9],8 µg/mL
same,MIC Escherichia coli ATCC 25922,[10],4 µg/mL
same,MIC Klebsiella pneumoniae ATCC 700603,[11],2 µg/mL
same,MIC MRSA,[12],2 µg/mL
same,MIC CRKP,[13],4 µg/mL
same,MIC CRPA,[14],2 µg/mL
same,MIC VRE,[15],4 µg/mL
same,MIC CREC,[16],8 µg/mL
same,Number of mice that died on each day after infection: day 4,[17]; 1 mg/kg gavage,2 Mouse
same,Number of mice that died on each day after infection: day 5,[17]; 1 mg/kg gavage,2 Mouse
same,Number of mice that died on each day after infection: day 6,[17]; 1 mg/kg gavage,0 Mouse
same,Number of mice that died on each day after infection: day 7,[17]; 1 mg/kg gavage,1 Mouse
same,Number of mice that died on each day after infection: day 8,[17]; 1 mg/kg gavage,1 Mouse
same,Average survival times (Days),[17]; 1 mg/kg gavage,8.9** Days
same,Trypsin MIC,[18],1 µg/mL
same,Number of mice that died on each day after infection: day 1,[19]; 1 mg/kg via tail vein,0 Mouse
same,Number of mice that died on each day after infection: day 2,[19]; 1 mg/kg via tail vein,1 Mouse
same,Number of mice that died on each day after infection: day 3,[19]; 1 mg/kg via tail vein,1 Mouse
same,Number of mice that died on each day after infection: day 4,[19]; 1 mg/kg via tail vein,1 Mouse
same,Number of mice that died on each day after infection: day 5,[19]; 1 mg/kg via tail vein,1 Mouse
same,Average survival times (Days),[19]; 1 mg/kg via tail vein,9.8*** Days
